Article PMC6222545, “Evaluating Marine Cyanobacteria as a Source for CNS Receptor Ligands” (Molecules : A Journal of Synthetic Chemistry and Natural …, 2018)
pKi: −log10 of the molar value.

Key:
[1] = biological target: T1, σ2R (Rattus norvegicus, UniProt Q5U3Y7); experiment: PDSP radioligand competitive binding, σ2R
T1 sequence (Q5U3Y7 1-176): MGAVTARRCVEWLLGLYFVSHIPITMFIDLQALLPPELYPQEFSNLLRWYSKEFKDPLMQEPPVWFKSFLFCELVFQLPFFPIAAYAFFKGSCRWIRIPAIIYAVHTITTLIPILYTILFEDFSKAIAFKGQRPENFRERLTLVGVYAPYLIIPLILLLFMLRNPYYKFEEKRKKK
Procedure: (§1) Prior to screening, cyanobacterial samples are extracted exhaustively in a solution of dichloromethane and methanol, then the extract is subjected to column chromatography using the solvent step gradient illustrated in Figure 1 to create nine fractions. The polarities of the solvents in this step gradient increase linearly with each fraction. A sample of each fraction and the crude is prepared and sent to the NIMH Psychoactive Drug Screening Program (PDSP) for screening against a panel of ~50 receptor including 5-HTRs, DARs, MATs, σRs, and other CNS receptors.
(§2) From the extracts of 37 cyanobacterial field collections from Panama and Curacao, 19 crude extracts and 301 fractions were sent to PDSP for CNS screening. Due to sample size requirements not all fractions created are sent for screening, resulting in a lower number of total fractions screened compared to the theoretical amount of 370 fractions and crudes. […] Data analysis of results from these screens is presented herein.
(§3) A cyanobacterial biomass collected at Isla Mina, Panama was extracted exhaustively with CH2Cl2-MeOH (2:1) to afford 3.3 g of crude extract given the identification code DUQ0008. This extract was fractionated to yield nine fractions (A–I). The crude extract, along with the nine fractions were submitted to PDSP for screening. […]

[2] = biological target: T2, 5-HT2C (Homo sapiens, UniProt P28335); experiment: PDSP radioligand competitive binding, 5-HT2C
T2 sequence (P28335 33-458): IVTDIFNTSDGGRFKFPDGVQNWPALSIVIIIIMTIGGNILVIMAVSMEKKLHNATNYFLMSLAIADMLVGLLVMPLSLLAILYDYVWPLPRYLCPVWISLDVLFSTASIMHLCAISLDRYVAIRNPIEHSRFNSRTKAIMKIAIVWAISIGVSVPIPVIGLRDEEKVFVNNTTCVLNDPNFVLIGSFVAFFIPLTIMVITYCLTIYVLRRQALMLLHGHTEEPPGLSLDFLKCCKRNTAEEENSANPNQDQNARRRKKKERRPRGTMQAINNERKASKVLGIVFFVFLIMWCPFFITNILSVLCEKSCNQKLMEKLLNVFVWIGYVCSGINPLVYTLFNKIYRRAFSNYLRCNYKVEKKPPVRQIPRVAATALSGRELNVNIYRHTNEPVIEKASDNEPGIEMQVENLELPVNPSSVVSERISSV
Procedure: as §1, §2, §3

[3] = system: 5-HTRs or any other receptor; experiment: PDSP primary radioligand binding screen, CNS receptor panel; parameters: dose or concentration left out as unconfirmed; conditions: data not shown
Procedure: as §1, §2
IC50 determinations/receptor binding profiles were generously provided by the National Institute of Mental Health’s Psychoactive Drug Screening Program, Contract # HHSN-271-2018-00023-C (NIMH PDSP). The NIMH PDSP is Directed by Bryan L. Roth MD, PhD at the University of North Carolina at Chapel Hill and Project Officer Jamie Driscoll at NIMH, Bethesda MD, USA. Detailed information regarding the assay protocol can be found at http://pdspdb.unc.edu/pdspWeb/.

[4] = pure compound resubmitted to PDSP

C#CCCC[C@H]1OC(=O)[C@H](C(C)C)N(C)C(=O)[C@@H]2CCCN2C(=O)[C@H]([C@@H](C)CC)OC(=O)[C@H](C(C)C)N(C)C(=O)[C@H](C(C)C)NC(=O)[C@H]1C [compound 1, veraguamide C]
affinity for the σ2R ([1]; in words): moderate and selective affinity
pKi [1, 4]: 6.50
inhibition of binding at 5-HT2C ([2]; primary binding, pure compound): greater than 50%
pKi [2, 4]: < 5.00

CCCCCCCCC/C(C)=C/C(C/C=C/CCC(=O)OCC)OC (stereo not shown) [compound 2]
inhibition of radioligand binding at 5-HTRs or any other receptor [3]: < 50%

CCCCCCC[C@H]1C[C@@H]1CCC(=O)OCC [compound 3]
inhibition of radioligand binding at 5-HTRs or any other receptor [3]: < 50%

C=C(CCCCCCCCCCCCC)CCCC(=O)O/C=C/COC(C)=O [compound 4, propenediester]
inhibition of radioligand binding at 5-HTRs or any other receptor [3]: < 50%
